Source: US20170001990A1 (Genentech, Inc., priority 2014, published 2017)

Biological target: Human recombinant carboxy-terminal his-tagged LDHA (amino acids 2-332) (Homo sapiens, UniProt P00338)
Assay: LDHA enzyme inhibition assay (NADH fluorescence)
Settings: LDHA IC50 (μM), 1 nM LDHA, NADH and pyruvate, stereochemistry of tested sample given
Experimental: Test compounds were diluted in 100% DMSO with 1:3 serial dilutions. […] For the enzyme reaction, serially diluted compounds were added to a mixture of enzyme and NADH. […] Following the baseline read, pyruvate was added to the assay plates and the plates were read with excitation 340 nm and emission 480 nm for 10 minutes every 2.5 seconds. A suitable linear timeframe was selected (150-400 s) to calculate the slope of each concentration tested. The raw data were fitted to 4-parameter dose-response curves using the following equation:
fit=(A+((B−A)/(1+((C/x)̂D))))
inv=(C/((((B−A)/(y−A))−)̂(1/D)))
res=(y−fit) • where A=minimum y, B=maximum y, C=50% y max, and D=slope factor.
The curve bottom was set to the background rate (initial 5 second recording prior to addition of pyruvate) and curve top was set to no inhibitor (DMSO only) control wells rate.
The compounds of the present invention were tested for their capacity to inhibit LDHA activity and activation as described in the enzyme inhibition assay described above.

| SMILES | IC50 |
| --- | --- |
| O=C1CC(c2ccsc2)(c2cccc(OCCC3CCC3)n2)NC(=O)C1Sc1ccccc1Cl (single isomer, unassigned) [Example 168, 3-(2-chlorophenyl)sulfanyl-6-[6-(2-cyclobutylethoxy)-2-pyridyl]-6-(3-thienyl) piperidine-2,4-dione] | 0.19 µM |
| CC(C)(O)CCOc1cccc(C2(c3ccsc3)CC(=O)C(Sc3ccccc3Cl)C(=O)N2)n1 (single isomer, unassigned) [Example 170, 3-(2-chlorophenyl)sulfanyl-6-[6-(3-hydroxy-3-methyl-butoxy)-2-pyridyl]-6-(3-thienyl)piperidine-2,4-dione] | 0.145 µM |
| COc1cc(F)cc(Cc2cccc(C3(c4ccsc4)CC(=O)C(Sc4ccccc4Cl)C(=O)N3)n2)c1 (single isomer, unassigned) [Example 171, 3-(2-chlorophenyl)sulfanyl-6-[6-[(3-fluoro-5-methoxy-phenyl)methyl]-2-pyridyl]-6-(3-thienyl) piperidine-2,4-dione] | 0.101 µM |
| O=C1CC(c2ccsc2)(c2cccc(Oc3ccccc3Br)n2)NC(=O)C1Sc1ccccc1Cl (single isomer, unassigned) [Example 172, 6-[6-(2-bromophenoxy)-2-pyridyl]-3-(2-chloro-phenyl)sulfanyl-6-(3-thienyl)piperidine-2,4-dione] | 0.056 µM |
| O=C1CC(c2ccsc2)(c2cccc(Oc3cc(F)cc(CO)c3)n2)NC(=O)C1Sc1ccccc1Cl (single isomer, unassigned) [Example 176, 3-(2-chlorophenyl)sulfanyl-6-[6-[3-fluoro-5-(hydroxymethyl)phenoxy]-2-pyridyl]-6-(3-thienyl) piperidine-2,4-dione] | 0.01 µM |
| O=C1CC(c2ccsc2)(c2cccc(Cc3ccccc3)n2)NC(=O)C1Sc1ccccc1Cl (single isomer, unassigned) [Example 180, 6-(6-benzyl-2-pyridyl)-3-(2-chlorophenyl)sulfanyl-6-(3-thienyl)piperidine-2,4-dione] | 0.002 µM |
| O=C1CC(c2ccsc2)(c2cccc(OC3CCCCC3)n2)NC(=O)C1Sc1ccccc1Cl (single isomer, unassigned) [Example 181, 3-(2-chlorophenyl)sulfanyl-6-[6-(cyclohexoxy)-2-pyridyl]-6-(3-thienyl) piperidine-2,4-dione] | 0.006 µM |
| CC1(COc2cccc(C3(c4ccsc4)CC(=O)C(Sc4ccccc4Cl)C(=O)N3)n2)CC1 (single isomer, unassigned) [Example 182, 3-(2-chlorophenyl)sulfanyl-6-[6-[(1-methylcyclo-propyl)methoxy]-2-pyridyl]-6-(3-thienyl)piperidine-2,4-dione] | 0.056 µM |
| CC(Oc1cccc(C2(c3ccsc3)CC(=O)C(Sc3ccccc3Cl)C(=O)N2)n1)C1CC1 (single isomer, unassigned) [Example 184, 3-(2-chlorophenyl)sulfanyl-6-[6-(1-cyclopropylethoxy)-2-pyridyl]-6-(3-thienyl) piperidine-2,4-dione] | 0.002 µM |
| O=C1CC(c2ccsc2)(c2cccc(OCCC3CCCCC3)n2)NC(=O)C1Sc1ccccc1Cl (single isomer, unassigned) [Example 185, 3-(2-chlorophenyl)sulfanyl-6-[6-(2-cyclohexylethoxy)-2-pyridyl]-6-(3-thienyl) piperidine-2,4-dione] | 0.055 µM |
| O=C1CC(c2ccsc2)(c2cccc(OCC3CCOCC3)n2)NC(=O)C1Sc1ccccc1Cl (single isomer, unassigned) [Example 187, 3-(2-chlorophenyl)sulfanyl-6-[6-(tetrahydropyran-4-ylmethoxy)-2-pyridyl]-6-(3-thienyl)piperidine-2,4-dione] | 0.025 µM |
| O=C1CCC(COc2cccc(C3(c4ccsc4)CC(=O)C(Sc4ccccc4Cl)C(=O)N3)n2)O1 (single isomer, unassigned) [Example 192, 3-(2-chlorophenyl)sulfanyl-6-[6-[(5-oxotetrahydrofuran-2-yl)methoxy]-2-pyridyl]-6-(3-thienyl)piperidine-2,4-dione] | 0.232 µM |
